Source: patent publication US11274101B2, “Heterocyclic compound” (Takeda Pharmaceutical Company Limited, priority 2017, dated 2022)

Biological target: T1, His-hMAGL (recombinant polyhistidine tagged human MAGL protein) (Homo sapiens, UniProt Q99685)
T1 construct: made in house; host or cells: E. coli BL21(DE3)
T1 sequence (Q99685 1-303): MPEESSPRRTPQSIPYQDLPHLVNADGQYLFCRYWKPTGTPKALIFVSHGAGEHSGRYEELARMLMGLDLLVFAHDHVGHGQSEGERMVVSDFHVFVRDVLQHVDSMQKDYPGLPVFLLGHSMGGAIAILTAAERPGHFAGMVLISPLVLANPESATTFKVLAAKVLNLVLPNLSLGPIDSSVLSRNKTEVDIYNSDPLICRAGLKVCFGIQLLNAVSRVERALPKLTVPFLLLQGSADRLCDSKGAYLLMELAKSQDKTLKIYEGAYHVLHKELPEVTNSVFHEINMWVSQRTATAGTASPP
Assay: Measurement of MAGL inhibitory activity (arachidonic acid production from 2-arachidonylglycerol, RapidFire-mass spectrometry)
Assay type: biochemical
Settings: test compound 10 μM; MAGL inhibitory rate
Procedure: The His-hMAGL obtained above was diluted with enzyme reaction buffer (10 mM Tris-HCl, pH 7.5, 1 mM EDTA, 0.025 (w/v) % Triton X-100, 0.01% Bovine serum albumin) to a concentration of 7.5 ng/mL. To each well of a 384 well assay plate (Greiner 781280) was added a solution (5 μL) of a test compound dissolved in dimethyl sulfoxide (DMSO), which was diluted with the above-mentioned enzyme reaction buffer, then His-hMAGL solution (5 μL) diluted to a concentration of 7.5 ng/mL was added, and the mixture was incubated at room temperature for 60 min. Thereafter, to each well was added 5 μL of 150 μM 2-arachidonylglycerol (Tocris Bioscience), and the mixture was incubated at room temperature for 10 min. Then, 10 μL of 2% formic acid (Wako Pure Chemical Industries, Ltd.) was added to stop the reaction. Furthermore, acetonitrile (50 μL) containing 3 μM arachidonic acid-d8 (Cayman Chemical Company) was added and the mixture was stirred.
The amount of arachidonic acid in the obtained enzyme reaction mixture was calculated by measuring by RapidFire-mass spectrometry and correcting by the amount of arachidonic acid-d8. High Throughput online solid phase extraction was performed using RapidFire 300™ system (Agilent Technologies, Inc.). Samples were loaded on SPE C4 cartridge (Agilent Technologies, Inc.) and desalted with 0.2 (v/v) % acetic acid (Wako Pure Chemical Industries, Ltd.) in ultrapure water/acetonitrile (70/30, v/v) at a flow rate of 1.5 mL/min, eluted at a flow rate of 0.5 mL/min with 0.2 (v/v) % acetic acid dissolved in acetonitrile/ultrapure water (90/10, v/v), and injected into the mass spectrometry part. The injection needle was washed with ultrapure water (500 millisecond) and acetonitrile (500 millisecond) to minimize carry-over. The suction time (injection loop 5 μL), load/cleansing time, elution time and re-equilibration time were adjusted to 300, 3000, 4250 and 1000 milliseconds, respectively, and the total cycle time was adjusted to about 10.0 seconds. The RapidFire300 system was controlled by RapidFire UI software version 3.6 (Agilent Technologies, Inc.).
The mass spectrometry of the resultant product was performed using API4000™ triple quadrupole mass spectrometer (AB SCIEX) equipped with an electrospray ion sauce (TurboIon Spray™) in a negative selected reaction monitoring (SRM) mode. The conditions of SRM are shown below. The parameters of the instrument were optimized as follows: capillary temperature 600° C., ion spray voltage −4.5 kV, collision gas 8, curtain gas 15 psi, ion source gas 1 60 psi, ion source gas 2 60 psi. The mass spectrometer was controlled by Analyst™ software version 1.5.1 (AB SCIEX). The peak area integration was analyzed using RapidFire integrator software version 3.6 (Agilent Technologies, Inc.).
MAGL inhibitory rate (%) was calculated according to the following calculation formula. (1-(arachidonic acid production amount of test compound addition group−arachidonic acid production amount of enzyme-free group)+(arachidonic acid production amount of test compound-free group−arachidonic acid production amount of enzyme-free group))×100

inhibition at 10 µM [%] | SMILES
100 | O=C1NC2(CO1)CN(C(=O)O[C@H]1C[C@@H](COCc3ccc(F)c(F)c3F)C1)C2 [Example 31, cis-3-(((2,3,4-trifluorobenzyl)oxy)methyl)cyclobutyl 6-oxo-7-oxa-2,5-diazaspiro[3.4]octane-2-carboxylate]
101 | Cc1ccc(O[C@H]2C[C@@H](OC(=O)N3CC4(COC(=O)N4)C3)C2)c(F)c1 [Example 56, cis-3-(2-fluoro-4-methylphenoxy)cyclobutyl 6-oxo-7-oxa-2,5-diazaspiro[3.4]octane-2-carboxylate]
101 | Cc1ccc(CO[C@H]2C[C@@H](OC(=O)N3CC4(COC(=O)N4)C3)C2)cc1Cl [Example 3, cis-3-((3-chloro-4-methylbenzyl)oxy)cyclobutyl 6-oxo-7-oxa-2,5-diazaspiro[3.4]octane-2-carboxylate]
103 | O=C1NC2(CO1)CN(C(=O)O[C@H]1C[C@@H](COc3ccc(Cl)cc3F)C1)C2 [Example 15, cis-3-((4-chloro-2-fluorophenoxy)methyl)cyclobutyl 6-oxo-7-oxa-2,5-diazaspiro[3.4]octane-2-carboxylate]
100 | O=C1NC2(CO1)CN(C(=O)O[C@H]1C[C@@H](Oc3cccc(Cl)c3)C1)C2 [Example 49, cis-3-(3-chlorophenoxy)cyclobutyl 6-oxo-7-oxa-2,5-diazaspiro[3.4]octane-2-carboxylate]
103 | O=C1NC2(CO1)CN(C(=O)O[C@H]1C[C@@H](Oc3ccc(F)cc3Cl)C1)C2 [Example 44, cis-3-(2-chloro-4-fluorophenoxy)cyclobutyl 6-oxo-7-oxa-2,5-diazaspiro[3.4]octane-2-carboxylate]
102 | O=C1NC2(CO1)CN(C(=O)O[C@H]1CC[C@@H](Oc3ccc(C(F)(F)F)cc3F)CC1)C2 [Example 38, cis-4-(2-fluoro-4-(trifluoromethyl)phenoxy)cyclohexyl 6-oxo-7-oxa-2,5-diazaspiro[3.4]octane-2-carboxylate]
100 | O=C1NC2(CO1)CN(C(=O)O[C@H]1C[C@@H](Oc3cc(F)c(F)cc3F)C1)C2 [Example 57, cis-3-(2,4,5-trifluorophenoxy)cyclobutyl 6-oxo-7-oxa-2,5-diazaspiro[3.4]octane-2-carboxylate]
100 | O=C1NC2(CO1)CN(C(=O)OC[C@H]1C[C@H](Oc3c(F)cc(F)cc3F)C1)C2 [Example 25, (trans-3-(2,4,6-trifluorophenoxy)cyclobutyl)methyl 6-oxo-7-oxa-2,5-diazaspiro[3.4]octane-2-carboxylate]
102 | O=C1NC2(CO1)CN(C(=O)O[C@H]1C[C@H](Oc3c(F)cc(F)cc3F)C1)C2 [Example 43, trans-3-(2,4,6-fluorophenoxy)cyclobutyl 6-oxo-7-oxa-2,5-diazaspiro[3.4]octane-2-carboxylate]
100 | O=C1NC2(CO1)CN(C(=O)O[C@H]1C[C@@H](OCc3ccc(C(F)(F)F)c(Cl)c3)C1)C2 [Example 11, cis-3-((3-chloro-4-(trifluoromethyl)benzyl)oxy)cyclobutyl 6-oxo-7-oxa-2,5-diazaspiro[3.4]octane-2-carboxylate]
99 | C[C@]1(OC(=O)N2CC3(COC(=O)N3)C2)C[C@H](OCc2ccccc2)C1 [Example 59, trans-3-(benzyloxy)-1-methylcyclobutyl 6-oxo-7-oxa-2,5-diazaspiro[3.4]octane-2-carboxylate]
99 | O=C1NC2(CO1)CN(C(=O)O[C@H]1C[C@@H](Oc3ccc(F)c(F)c3F)C1)C2 [Example 51, cis-3-(2,3,4-trifluorophenoxy)cyclobutyl 6-oxo-7-oxa-2,5-diazaspiro[3.4]octane-2-carboxylate]
100 | O=C1NC2(CO1)CN(C(=O)O[C@H]1C[C@@H](COc3ccc(C(F)(F)F)cc3Cl)C1)C2 [Example 20, cis-3-((2-chloro-4-(trifluoromethyl)phenoxy)methyl)cyclobutyl 6-oxo-7-oxa-2,5-diazaspiro[3.4]octane-2-carboxylate]
100 | C[C@]1(Oc2ccc(F)cc2Cl)C[C@@H](OC(=O)N2CC3(COC(=O)N3)C2)C1 [Example 63, cis-3-(2-chloro-4-fluorophenoxy)-3-methylcyclobutyl 6-oxo-7-oxa-2,5-diazaspiro[3.4]octane-2-carboxylate]
99 | O=C1NC2(CO1)CN(C(=O)O[C@H]1C[C@@H](OCc3ccc(C(F)(F)F)cc3F)C1)C2 [Example 10, cis-3-((2-fluoro-4-(trifluoromethyl)benzyl)oxy)cyclobutyl 6-oxo-7-oxa-2,5-diazaspiro[3.4]octane-2-carboxylate]
99 | O=C1NC2(CO1)CN(C(=O)O[C@H]1C[C@@H](OCc3ccc(Cl)c(Cl)c3)C1)C2 [Example 9, cis-3-((3,4-dichlorobenzyl)oxy)cyclobutyl 6-oxo-7-oxa-2,5-diazaspiro[3.4]octane-2-carboxylate]
101 | O=C1NC2(CO1)CN(C(=O)O[C@H]1C[C@@H](COCc3c(F)cc(F)cc3F)C1)C2 [Example 33, cis-3-(((2,4,6-trifluorobenzyl)oxy)methyl)cyclobutyl 6-oxo-7-oxa-2,5-diazaspiro[3.4]octane-2-carboxylate]
101 | Cc1ccc(OC[C@H]2C[C@@H](OC(=O)N3CC4(COC(=O)N4)C3)C2)c(F)c1 [Example 12, cis-3-((2-fluoro-4-methylphenoxy)methyl)cyclobutyl 6-oxo-7-oxa-2,5-diazaspiro[3.4]octane-2-carboxylate]
100 | O=C1NC2(CO1)CN(C(=O)O[C@H]1C[C@@H](COCc3ccc(C(F)(F)F)cc3F)C1)C2 [Example 36, cis-3-(((2-fluoro-4-(trifluoromethyl)benzyl)oxy)methyl)cyclobutyl 6-oxo-7-oxa-2,5-diazaspiro[3.4]octane-2-carboxylate]
98 | O=C1NC2(CO1)CN(C(=O)O[C@H]1C[C@@H](COc3ccc(F)cc3Cl)C1)C2 [Example 14, cis-3-((2-chloro-4-fluorophenoxy)methyl)cyclobutyl 6-oxo-7-oxa-2,5-diazaspiro[3.4]octane-2-carboxylate]
98 | C[C@]1(OC(=O)N2CC3(COC(=O)N3)C2)C[C@@H](Oc2c(F)cc(F)cc2F)C1 [Example 60, cis-1-methyl-3-(2,4,6-trifluorophenoxy)cyclobutyl 6-oxo-7-oxa-2,5-diazaspiro[3.4]octane-2-carboxylate]
100 | O=C1NC2(CO1)CN(C(=O)O[C@H]1C[C@@H](Oc3ccc(Cl)cc3F)C1)C2 [Example 54, cis-3-(4-chloro-2-fluorophenoxy)cyclobutyl 6-oxo-7-oxa-2,5-diazaspiro[3.4]octane-2-carboxylate]
99 | O=C1NC2(CO1)CN(C(=O)O[C@H]1C[C@H](OCc3ccc(C(F)(F)F)cc3F)C1)C2 [Example 62, trans-3-((2-fluoro-4-(trifluoromethyl)benzyl)oxy)cyclobutyl 6-oxo-7-oxa-2,5-diazaspiro[3.4]octane-2-carboxylate]
100 | O=C1NC2(CO1)CN(C(=O)O[C@H]1C[C@H](COc3ccc(F)c(F)c3F)C1)C2 [Example 21, trans-3-((2,3,4-trifluorophenoxy)methyl)cyclobutyl 6-oxo-7-oxa-2,5-diazaspiro[3.4]octane-2-carboxylate]
100 | C[C@]1(OC(=O)N2CC3(COC(=O)N3)C2)C[C@H](Oc2c(F)cc(F)cc2F)C1 [Example 61, trans-1-methyl-3-(2,4,6-trifluorophenoxy)cyclobutyl 6-oxo-7-oxa-2,5-diazaspiro[3.4]octane-2-carboxylate]
